Assay results as given in the supplement of paper PMC4862054.

What follows are molecules tested on DU-4475 (assay: drug sensitivity score (DSS), CellTox Green (DSS (AUC-based score)); higher = stronger drug effect (viability inhibition or cytotoxicity); extreme values may be limits of the assay). Settings: incubation time: 72 h.
Summary of the method: (§1)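 Breast cancer cell lines (20 µl suspension) were seeded into 384-well plates holding compound at 5 concentrations in 10-fold steps over a compound-specific 10,000-fold range, then incubated 72 h. CellTox Green fluorescence (485/520 nm) was read first, then CellTiter-Glo luminescence after 10 min at room temperature. Each plate was normalised to 0.1 % DMSO and a positive kill control. The drug sensitivity score was calculated from the area under the fitted dose-response curve.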

Row | SMILES | drug sensitivity score
1 | CC(=O)c1c(C)c2cnc(Nc3ccc(N4CCNCC4)cn3)nc2n(C2CCCC2)c1=O [Palbociclib] | 0
2 | CC[C@@H]1C(=O)OC[C@@H]1Cc1cncn1C [Pilocarpine] | 0

What follows are molecules tested on CAL-148 in the same assay as above. Settings: incubation time: 72 h.
Summary of the method: as §1

Row | SMILES | drug sensitivity score
3 | CC1(C)CCC(CN2CCN(c3ccc(C(=O)NS(=O)(=O)c4ccc(NCC5CCOCC5)c([N+](=O)[O-])c4)c(Oc4cnc5[nH]ccc5c4)c3)CC2)=C(c2ccc(Cl)cc2)C1 [ABT-199] | 0
4 | Oc1ncnc2[nH]ncc12 [Allopurinol] | 0
5 | CC1=C2C[C@H]3[C@@H](CC=C4C[C@@H](O)CC[C@@]43C)[C@@H]2CC[C@]12O[C@@H]1C[C@H](C)CN[C@H]1[C@H]2C [Cyclopamine] | 0
6 | CC(=O)N(O)CCCCCNC(=O)CCC(=O)N(O)CCCCCNC(=O)CCC(=O)N(O)CCCCCN [Deferoxamine] | 7.47
7 | C[C@]12CC[C@@H]3c4ccc(OC(=O)N(CCCl)CCCl)cc4CC[C@H]3[C@@H]1CC[C@@H]2O [Estramustine] | 0
8 | CC[C@@H]1C(=O)OC[C@@H]1Cc1cncn1C [Pilocarpine] | 0

What follows are molecules tested on HCC1143 in the same assay as above. Settings: incubation time: 72 h.
Summary of the method: as §1

Row | SMILES | drug sensitivity score
9 | CC1(C)CCC(CN2CCN(c3ccc(C(=O)NS(=O)(=O)c4ccc(NCC5CCOCC5)c([N+](=O)[O-])c4)c(Oc4cnc5[nH]ccc5c4)c3)CC2)=C(c2ccc(Cl)cc2)C1 [ABT-199] | 0
10 | Oc1ncnc2[nH]ncc12 [Allopurinol] | 0
11 | O=C1CN2Cc3c(ccc(Cl)c3Cl)N=C2N1 [Anagrelide] | 0
12 | CC1=C2C[C@H]3[C@@H](CC=C4C[C@@H](O)CC[C@@]43C)[C@@H]2CC[C@]12O[C@@H]1C[C@H](C)CN[C@H]1[C@H]2C [Cyclopamine] | 2.47
13 | CC(=O)N(O)CCCCCNC(=O)CCC(=O)N(O)CCCCCNC(=O)CCC(=O)N(O)CCCCCN [Deferoxamine] | 0
14 | C[C@]12CC[C@@H]3c4ccc(OC(=O)N(CCCl)CCCl)cc4CC[C@H]3[C@@H]1CC[C@@H]2O [Estramustine] | 0
15 | CC(=O)c1c(C)c2cnc(Nc3ccc(N4CCNCC4)cn3)nc2n(C2CCCC2)c1=O [Palbociclib] | 0
16 | CC[C@@H]1C(=O)OC[C@@H]1Cc1cncn1C [Pilocarpine] | 0

The molecules below were run on CAL-51 in the same assay as above. Settings: incubation time: 72 h.
Summary of the method: as §1

Row | SMILES | drug sensitivity score
17 | CC1(C)CCC(CN2CCN(c3ccc(C(=O)NS(=O)(=O)c4ccc(NCC5CCOCC5)c([N+](=O)[O-])c4)c(Oc4cnc5[nH]ccc5c4)c3)CC2)=C(c2ccc(Cl)cc2)C1 [ABT-199] | 0
18 | Oc1ncnc2[nH]ncc12 [Allopurinol] | 0
19 | O=C1CN2Cc3c(ccc(Cl)c3Cl)N=C2N1 [Anagrelide] | 14.2
20 | CC1=C2C[C@H]3[C@@H](CC=C4C[C@@H](O)CC[C@@]43C)[C@@H]2CC[C@]12O[C@@H]1C[C@H](C)CN[C@H]1[C@H]2C [Cyclopamine] | 0
21 | CC(=O)N(O)CCCCCNC(=O)CCC(=O)N(O)CCCCCNC(=O)CCC(=O)N(O)CCCCCN [Deferoxamine] | 4.29
22 | C[C@]12CC[C@@H]3c4ccc(OC(=O)N(CCCl)CCCl)cc4CC[C@H]3[C@@H]1CC[C@@H]2O [Estramustine] | 6.18
23 | CC(=O)c1c(C)c2cnc(Nc3ccc(N4CCNCC4)cn3)nc2n(C2CCCC2)c1=O [Palbociclib] | 0
24 | CC[C@@H]1C(=O)OC[C@@H]1Cc1cncn1C [Pilocarpine] | 0

Each molecule was assayed on MDA-MB-453 in the same assay as above. Settings: incubation time: 72 h.
Summary of the method: as §1

Row | SMILES | drug sensitivity score
25 | CC1(C)CCC(CN2CCN(c3ccc(C(=O)NS(=O)(=O)c4ccc(NCC5CCOCC5)c([N+](=O)[O-])c4)c(Oc4cnc5[nH]ccc5c4)c3)CC2)=C(c2ccc(Cl)cc2)C1 [ABT-199] | 0
26 | O=C1CN2Cc3c(ccc(Cl)c3Cl)N=C2N1 [Anagrelide] | 0
27 | CC1=C2C[C@H]3[C@@H](CC=C4C[C@@H](O)CC[C@@]43C)[C@@H]2CC[C@]12O[C@@H]1C[C@H](C)CN[C@H]1[C@H]2C [Cyclopamine] | 0
28 | CC(=O)N(O)CCCCCNC(=O)CCC(=O)N(O)CCCCCNC(=O)CCC(=O)N(O)CCCCCN [Deferoxamine] | 0
29 | C[C@]12CC[C@@H]3c4ccc(OC(=O)N(CCCl)CCCl)cc4CC[C@H]3[C@@H]1CC[C@@H]2O [Estramustine] | 0
30 | CC(=O)c1c(C)c2cnc(Nc3ccc(N4CCNCC4)cn3)nc2n(C2CCCC2)c1=O [Palbociclib] | 0
31 | CC[C@@H]1C(=O)OC[C@@H]1Cc1cncn1C [Pilocarpine] | 0

What follows are molecules tested on BT-474 in the same assay as above. Settings: incubation time: 72 h.
Summary of the method: as §1

Row | SMILES | drug sensitivity score
32 | CC1(C)CCC(CN2CCN(c3ccc(C(=O)NS(=O)(=O)c4ccc(NCC5CCOCC5)c([N+](=O)[O-])c4)c(Oc4cnc5[nH]ccc5c4)c3)CC2)=C(c2ccc(Cl)cc2)C1 [ABT-199] | 0
33 | Oc1ncnc2[nH]ncc12 [Allopurinol] | 0
34 | O=C1CN2Cc3c(ccc(Cl)c3Cl)N=C2N1 [Anagrelide] | 0
35 | CC1=C2C[C@H]3[C@@H](CC=C4C[C@@H](O)CC[C@@]43C)[C@@H]2CC[C@]12O[C@@H]1C[C@H](C)CN[C@H]1[C@H]2C [Cyclopamine] | 0
36 | CC(=O)N(O)CCCCCNC(=O)CCC(=O)N(O)CCCCCNC(=O)CCC(=O)N(O)CCCCCN [Deferoxamine] | 0
37 | C[C@]12CC[C@@H]3c4ccc(OC(=O)N(CCCl)CCCl)cc4CC[C@H]3[C@@H]1CC[C@@H]2O [Estramustine] | 0
38 | CC(=O)c1c(C)c2cnc(Nc3ccc(N4CCNCC4)cn3)nc2n(C2CCCC2)c1=O [Palbociclib] | 0
39 | CC[C@@H]1C(=O)OC[C@@H]1Cc1cncn1C [Pilocarpine] | 0

These molecules were tested on MDA-MB-436 in the same assay as above. Settings: incubation time: 72 h.
Summary of the method: as §1

Row | SMILES | drug sensitivity score
40 | CC1(C)CCC(CN2CCN(c3ccc(C(=O)NS(=O)(=O)c4ccc(NCC5CCOCC5)c([N+](=O)[O-])c4)c(Oc4cnc5[nH]ccc5c4)c3)CC2)=C(c2ccc(Cl)cc2)C1 [ABT-199] | 0
41 | Oc1ncnc2[nH]ncc12 [Allopurinol] | 0
42 | O=C1CN2Cc3c(ccc(Cl)c3Cl)N=C2N1 [Anagrelide] | 0
43 | CC1=C2C[C@H]3[C@@H](CC=C4C[C@@H](O)CC[C@@]43C)[C@@H]2CC[C@]12O[C@@H]1C[C@H](C)CN[C@H]1[C@H]2C [Cyclopamine] | 0
44 | CC(=O)N(O)CCCCCNC(=O)CCC(=O)N(O)CCCCCNC(=O)CCC(=O)N(O)CCCCCN [Deferoxamine] | 0
45 | C[C@]12CC[C@@H]3c4ccc(OC(=O)N(CCCl)CCCl)cc4CC[C@H]3[C@@H]1CC[C@@H]2O [Estramustine] | 0
46 | CC(=O)c1c(C)c2cnc(Nc3ccc(N4CCNCC4)cn3)nc2n(C2CCCC2)c1=O [Palbociclib] | 0
47 | CC[C@@H]1C(=O)OC[C@@H]1Cc1cncn1C [Pilocarpine] | 0
